Data on 16 compounds can be found in patent US12264156B2, “Compounds and pharmaceutical compositions thereof for the treatment of diseases” (GALAPAGOS NV, priority 2018, dated 2025).

In one experiment the target is T1, SIK1 (Homo sapiens, UniProt P57059).
T1 construct: purchased Carna Biosciences 02-131
Briefly: ADP-Glo kinase assay, SIK1. The conditions noted are these: ADP-Glo SIK kinase assay. It counts as biochemical. The procedure, abridged:
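Enzyme–substrate mix was started with ATP and incubated 120 min at RT. ADP formed was quantified by ADP-Glo: 40 min ATP depletion, then 30 min detection reagent converting ADP to ATP for luciferase luminescence, which rises with kinase activity. Controls: 1% DMSO and 10 μM staurosporine (final).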
On the technique in general: ADP-Glo turns the ADP formed in a reaction into a luminescent signal.

The target of a further experiment is T2, SIK2 (Homo sapiens, UniProt Q9H0K1).
T2 construct: purchased ThermoFisher Scientific PV4792
Briefly: ADP-Glo kinase assay, SIK2. It counts as biochemical. The settings on record: ADP-Glo SIK kinase assay. The procedure, abridged:
(§1)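 Kinase reactions (enzyme-substrate mix plus ATP) ran 120 min at room temperature for each of SIK3 and SIK2. Signal came from ADP-Glo: unconsumed ATP removed (40 min), ADP reconverted and detected by luciferase/luciferin (30 min), with luminescence tracking kinase activity. 10 μM staurosporine and 1% DMSO (final) served as controls.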

The target of another experiment is T3, SIK3 (Homo sapiens, UniProt Q9Y2K2).
T3 construct: purchased SignalChem S12-11G-100
Briefly: ADP-Glo kinase assay, SIK3. It counts as biochemical. The settings on record: ADP-Glo SIK kinase assay. The procedure, abridged:
as §1

For experiment [1], the system named is LPS-induced TNFα in monocytes. Briefly: Monocytes assay: LPS-triggered TNFα (ELISA). The settings on record: Homo sapiens, Monocyte, LPS 200 ng/mL, supernatant after 4 h. It counts as cell-based, human. The procedure, abridged:
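Supernatant TNFα was quantified by luminol-based sandwich ELISA after 4 h stimulation with LPS (200 ng/mL final). The cells were CD14-bead-purified monocytes from human PBMCs, 100 000 per well, exposed to 3-fold compound dilutions for 1 h at 37° C beforehand, with DMSO at 0.2%. Results are reported as percent inhibition.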
For orientation: ELISA stands for enzyme-linked immunosorbent assay.

Experiment [2] has as its system LPS triggered IL-10 secretion in monocytes. The experiment in a line: Monocytes assay: LPS-triggered IL-10 (ELISA). The experiment is classed as cell-based, human. The conditions noted are these: LPS 200 ng/mL, supernatant after 4 h, maximal fold change vs LPS only. The procedure, abridged:
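Human CD14+ monocytes, magnetically isolated from buffy-coat PBMCs, were seeded at 100 000 cells/well and preincubated with compound for 1 h at 37° C (0.2% DMSO). LPS was then added at a final 200 ng/mL for 4 h. Supernatant IL-10 was quantified by chemiluminescent sandwich ELISA against a standard curve.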

T1 sequence (P57059 whole entry): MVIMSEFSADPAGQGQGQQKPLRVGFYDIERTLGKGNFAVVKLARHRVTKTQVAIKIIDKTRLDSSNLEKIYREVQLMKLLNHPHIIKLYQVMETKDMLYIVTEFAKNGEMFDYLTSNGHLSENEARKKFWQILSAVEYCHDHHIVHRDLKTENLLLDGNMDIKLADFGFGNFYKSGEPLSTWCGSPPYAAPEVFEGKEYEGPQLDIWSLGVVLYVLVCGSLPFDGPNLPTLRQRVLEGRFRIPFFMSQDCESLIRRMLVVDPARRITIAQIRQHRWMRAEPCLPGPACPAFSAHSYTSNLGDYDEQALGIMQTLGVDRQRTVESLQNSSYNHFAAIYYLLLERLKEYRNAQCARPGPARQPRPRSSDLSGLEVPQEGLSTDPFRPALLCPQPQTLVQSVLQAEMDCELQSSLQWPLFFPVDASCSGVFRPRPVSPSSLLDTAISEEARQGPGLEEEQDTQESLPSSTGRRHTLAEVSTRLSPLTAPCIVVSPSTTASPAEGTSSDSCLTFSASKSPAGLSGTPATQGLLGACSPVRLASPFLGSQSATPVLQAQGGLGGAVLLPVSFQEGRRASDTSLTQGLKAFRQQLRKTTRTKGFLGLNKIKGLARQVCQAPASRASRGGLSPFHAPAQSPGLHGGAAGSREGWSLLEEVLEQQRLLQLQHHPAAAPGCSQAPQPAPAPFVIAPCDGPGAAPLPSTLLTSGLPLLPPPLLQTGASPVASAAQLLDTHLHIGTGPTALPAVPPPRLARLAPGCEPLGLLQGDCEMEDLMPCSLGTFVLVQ
T3 sequence (Q9Y2K2 whole entry): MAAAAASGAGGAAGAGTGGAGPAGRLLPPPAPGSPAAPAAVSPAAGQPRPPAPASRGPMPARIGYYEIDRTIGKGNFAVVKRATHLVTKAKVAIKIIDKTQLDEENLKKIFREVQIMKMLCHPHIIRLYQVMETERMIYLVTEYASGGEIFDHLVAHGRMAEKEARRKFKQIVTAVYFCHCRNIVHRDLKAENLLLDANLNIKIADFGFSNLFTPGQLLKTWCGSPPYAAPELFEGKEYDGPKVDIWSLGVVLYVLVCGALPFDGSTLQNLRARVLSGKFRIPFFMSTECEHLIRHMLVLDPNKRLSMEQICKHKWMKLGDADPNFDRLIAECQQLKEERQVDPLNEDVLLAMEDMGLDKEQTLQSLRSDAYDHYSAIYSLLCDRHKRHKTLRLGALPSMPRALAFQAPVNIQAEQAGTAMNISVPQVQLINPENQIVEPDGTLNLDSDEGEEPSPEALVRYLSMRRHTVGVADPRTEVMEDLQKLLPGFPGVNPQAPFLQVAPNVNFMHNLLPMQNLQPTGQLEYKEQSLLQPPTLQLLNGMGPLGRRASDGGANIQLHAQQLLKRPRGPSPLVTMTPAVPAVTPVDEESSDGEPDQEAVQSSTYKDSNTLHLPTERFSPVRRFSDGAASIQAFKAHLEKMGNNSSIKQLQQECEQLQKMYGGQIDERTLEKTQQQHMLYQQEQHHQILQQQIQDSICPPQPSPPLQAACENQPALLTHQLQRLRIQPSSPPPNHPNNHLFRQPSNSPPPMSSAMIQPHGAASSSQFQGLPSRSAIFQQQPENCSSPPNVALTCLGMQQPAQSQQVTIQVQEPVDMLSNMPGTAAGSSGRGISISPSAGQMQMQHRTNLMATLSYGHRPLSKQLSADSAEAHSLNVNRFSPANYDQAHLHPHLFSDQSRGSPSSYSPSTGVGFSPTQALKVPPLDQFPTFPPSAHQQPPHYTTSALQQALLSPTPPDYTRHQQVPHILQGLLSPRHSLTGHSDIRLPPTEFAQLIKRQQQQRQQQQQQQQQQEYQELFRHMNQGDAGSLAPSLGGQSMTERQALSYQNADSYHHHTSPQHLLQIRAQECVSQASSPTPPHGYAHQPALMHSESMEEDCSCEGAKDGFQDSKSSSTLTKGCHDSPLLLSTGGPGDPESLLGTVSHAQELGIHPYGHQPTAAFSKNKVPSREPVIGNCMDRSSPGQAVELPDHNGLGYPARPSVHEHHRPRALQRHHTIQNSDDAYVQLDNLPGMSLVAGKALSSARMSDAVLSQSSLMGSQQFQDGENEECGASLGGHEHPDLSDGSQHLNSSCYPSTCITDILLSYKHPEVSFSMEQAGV
T2 sequence (Q9H0K1 whole entry): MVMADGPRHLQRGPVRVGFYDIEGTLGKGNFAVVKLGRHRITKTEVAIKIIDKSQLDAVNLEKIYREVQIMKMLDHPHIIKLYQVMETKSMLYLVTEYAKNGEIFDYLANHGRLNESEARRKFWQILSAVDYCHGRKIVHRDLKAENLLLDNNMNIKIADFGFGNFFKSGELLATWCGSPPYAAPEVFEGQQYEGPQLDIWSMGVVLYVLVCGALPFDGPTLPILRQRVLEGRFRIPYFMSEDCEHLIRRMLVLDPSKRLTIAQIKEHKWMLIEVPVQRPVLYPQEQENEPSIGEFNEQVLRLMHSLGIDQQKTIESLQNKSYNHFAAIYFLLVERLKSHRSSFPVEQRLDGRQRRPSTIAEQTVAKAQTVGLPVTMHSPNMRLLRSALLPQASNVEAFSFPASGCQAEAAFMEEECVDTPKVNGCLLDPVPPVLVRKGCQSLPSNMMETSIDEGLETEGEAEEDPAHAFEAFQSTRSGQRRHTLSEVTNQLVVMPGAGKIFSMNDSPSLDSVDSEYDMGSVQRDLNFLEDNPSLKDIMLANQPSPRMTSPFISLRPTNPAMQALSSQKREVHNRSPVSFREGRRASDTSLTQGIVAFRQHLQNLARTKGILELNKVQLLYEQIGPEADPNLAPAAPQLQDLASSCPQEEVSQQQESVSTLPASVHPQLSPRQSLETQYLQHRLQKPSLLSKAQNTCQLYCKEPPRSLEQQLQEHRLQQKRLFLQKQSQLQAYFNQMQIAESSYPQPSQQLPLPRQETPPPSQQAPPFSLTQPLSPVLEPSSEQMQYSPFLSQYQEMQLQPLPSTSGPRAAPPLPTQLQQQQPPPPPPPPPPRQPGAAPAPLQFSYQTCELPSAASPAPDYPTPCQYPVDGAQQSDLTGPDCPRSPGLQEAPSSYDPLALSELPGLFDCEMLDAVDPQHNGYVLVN

Broadly, the IC50 is the midpoint of a concentration-inhibition curve. Read a low IC50 as greater potency in that assay. As a reminder, the EC50 is the concentration needed to bring the measured effect to its halfway point. Regarding `COc1cc(-c2cnc3cc(OCCCN4CCOCC45CCC5)ccn23)cc(OC(F)F)c1C(=O)NC1CC1` [compound 281, N-cyclopropyl-2-(difluoromethoxy)-6-methoxy-4-[7-[3-(8-oxa-5-azaspiro[3.5]nonan-5-yl)propoxy]imidazo[1,2-a]pyridin-3-yl]benzamide], the IC50 at SIK1, against SIK2 and on SIK3 was 0.01 to 10 nM each time. For the same compound, the EC50 in experiment [1] (4 h) was in the range of 0.1 to 100 nM. Besides, the “IL-10 FCmax median” value in experiment [2] is “+++ (>4.5)”.

Regarding `COc1cc(-c2cnc3cc(OCCCN4CC(O)(C(F)(F)F)C4)ccn23)cc(OC(F)F)c1C(=O)NC1CC1` [compound 348, N-cyclopropyl-2-(difluoromethoxy)-4-[7-[3-[3-hydroxy-3-(trifluoromethyl)azetidin-1-yl]propoxy]imidazo[1,2-a]pyridin-3-yl]-6-methoxy-benzamide], the IC50 is 10 to 100 nM at SIK1, 0.01 to 10 nM at SIK2 and 0.01 to 10 nM against SIK3. In experiment [1] (4 h), this compound showed an EC50 of 0.1 to 100 nM. Moreover, in experiment [2], the “IL-10 FCmax median” value was “++ (>1.5-4.5)”.

With `COc1cc(-c2cnc3cc(OCCCN4CCCC5(COC5)C4)ccn23)cc(OC(F)F)c1C(=O)NC1CC1` [compound 303, N-cyclopropyl-2-(difluoromethoxy)-6-methoxy-4-[7-[3-(2-oxa-8-azaspiro[3.5]nonan-8-yl)propoxy]imidazo[1,2-a]pyridin-3-yl]benzamide], the values for the IC50 against SIK1, on SIK2 and against SIK3 were 10 to 100 nM, 0.01 to 10 nM and 0.01 to 10 nM, respectively. This compound yielded an EC50 in experiment [1] (4 h) of 0.1 to 100 nM. Moreover, in experiment [2], the “IL-10 FCmax median” value is “+++ (>4.5)”.

As to `CCOC(=O)C1(C)CN(CCCOc2ccn3c(-c4cc(OC)c(C(=O)NC5CC5)c(OC(F)F)c4)cnc3c2)C1` [compound 385, ethyl 1-[3-[3-[4-(cyclopropylcarbamoyl)-3-(difluoromethoxy)-5-methoxy-phenyl]imidazo[1,2-a]pyridin-7-yl]oxypropyl]-3-methyl-azetidine-3-carboxylate], the IC50 at SIK1 was in the range of 10 to 100 nM; against SIK2, 0.01 to 10 nM; against SIK3, 0.01 to 10 nM. For the same compound, in experiment [1] (4 h), the EC50 was 0.1 to 100 nM. The “IL-10 FCmax median” value in experiment [2] is listed as “+++ (>4.5)”.

In the case of `COc1cc(-c2cnc3cc(OCCCN4CCC(O)CC4)ccn23)cc(OC(F)F)c1C(=O)NC1CC1` [compound 277, N-cyclopropyl-2-(difluoromethoxy)-4-[7-[3-(4-hydroxy-1-piperidyl)propoxy]imidazo [1,2-a]pyridin-3-yl]-6-methoxy-benzamide], the IC50 on SIK1 lay within 10 to 100 nM; against SIK2, 0.01 to 10 nM; against SIK3, 0.01 to 10 nM. In addition, in experiment [1] (4 h), the EC50 lay within 0.1 to 100 nM. Further, in experiment [2], the “IL-10 FCmax median” value was “+++ (>4.5)”.

Regarding `CCOC(=O)C1(C)CCN(CCCOc2ccn3c(-c4cc(OC)c(C(=O)NC5CC5)c(OC(F)F)c4)cnc3c2)CC1` [compound 380, ethyl 1-[3-[3-[4-(cyclopropylcarbamoyl)-3-(difluoromethoxy)-5-methoxy-phenyl]imidazo[1,2-a]pyridin-7-yl]oxypropyl]-4-methyl-piperidine-4-carboxylate], the results for the IC50 against SIK1, against SIK2 and on SIK3 were 10 to 100 nM, 0.01 to 10 nM and 0.01 to 10 nM, respectively. This compound came in with an EC50 in experiment [1] (4 h) of 0.1 to 100 nM. Besides, the “IL-10 FCmax median” value in experiment [2] is on record as “++ (>1.5-4.5)”.

In the case of `CCOC(=O)COc1ccn2c(-c3cc(OC)c(C(=O)NC4CC4)c(OC(F)F)c3)cnc2c1` [Cpd 268, ethyl 2-[3-[4-(cyclopropylcarbamoyl)-3-(difluoromethoxy)-5-methoxy-phenyl]imidazo[1,2-a]pyridin-7-yl]oxyacetate], the IC50 fell in the range of 10 to 100 nM against SIK1, 10 to 100 nM on SIK2 and 0.01 to 10 nM at SIK3. In experiment [1] (4 h), this compound showed an EC50 of 100 to 1000 nM. Besides, in experiment [2], the “IL-10 FCmax median” value is recorded as “+++ (>4.5)”.

Consider `COc1cc(-c2cnc3cc(OCCCN4CC(C)(O)C4)ccn23)cc(OC(F)F)c1C(=O)NC1CC1` [compound 362, N-cyclopropyl-2-(difluoromethoxy)-4-[7-[3-(3-hydroxy-3-methyl-azetidin-1-yl)propoxy]imidazo[1,2-a]pyridin-3-yl]-6-methoxy-benzamide], for which the values for the IC50 at SIK1, against SIK2 and on SIK3 were 10 to 100 nM, 0.01 to 10 nM and 0.01 to 10 nM, respectively. The EC50 in experiment [1] (4 h) was in the range of 100 to 1000 nM. The “IL-10 FCmax median” value in experiment [2] is recorded as “++ (>1.5-4.5)”.

With `CCOC(=O)CN1[C@@H]2CC[C@H]1CC(Oc1ccn3c(-c4cc(OC)c(C(=O)NC5CC5)c(OC(F)F)c4)cnc3c1)C2` (stereo partly drawn) [compound 272, ethyl 2-[(1R,5S)-3-[3-[4-(cyclopropylcarbamoyl)-3-(difluoromethoxy)-5-methoxy-phenyl]imidazo[1,2-a]pyridin-7-yl]oxy-8-azabicyclo[3.2.1]octan-8-yl]acetate], the IC50 was 100 to 500 nM on SIK1, 10 to 100 nM against SIK2 and 10 to 100 nM at SIK3. Moreover, the 50% effective concentration (EC50) in experiment [1] lay within 0.1 to 100 nM. For the same compound, the “IL-10 FCmax median” value in experiment [2] is “+++ (>4.5)”.

Turning to `COc1cc(-c2cnc3cc(OCC4CN(CCC#N)C4)ccn23)cc(OC(F)F)c1C(=O)NC1CC1` [Cpd 323, 4-[7-[[1-(2-cyanoethyl)azetidin-3-yl]methoxy]imidazo[1,2-a]pyridin-3-yl]-N-cyclopropyl-2-(difluoromethoxy)-6-methoxy-benzamide], the IC50 on SIK1 was 10 to 100 nM; on SIK2 it was 0.01 to 10 nM; at SIK3, 0.01 to 10 nM. In experiment [1] (4 h), this compound registered an EC50 of 0.1 to 100 nM. Further, in experiment [2], the “IL-10 FCmax median” value is given as “+++ (>4.5)”.

Consider `CCOC(=O)C1(O)CCN(CC(O)COc2ccn3c(-c4cc(OC)c(C(=O)NC5CC5)c(OC(F)F)c4)cnc3c2)CC1` (centres unmarked) [compound 383, ethyl 1-[3-[3-[4-(cyclopropylcarbamoyl)-3-(difluoromethoxy)-5-methoxy-phenyl]imidazo[1,2-a]pyridin-7-yl]oxy-2-hydroxy-propyl]-4-hydroxy-piperidine-4-carboxylate], for which the IC50 against SIK1 lay within 10 to 100 nM; against SIK2, 0.01 to 10 nM; against SIK3, 0.01 to 10 nM. This compound displayed an EC50 in experiment [1] (4 h) of 100 to 1000 nM. The “IL-10 FCmax median” value in experiment [2] is listed as “++ (>1.5-4.5)”.

Consider `COc1cc(-c2cnc3cc(OCC4CCN(C5COC5)C4)ccn23)cc(OC(F)F)c1C(=O)NC1CC1` (centres unmarked) [Cpd 288, N-cyclopropyl-2-(difluoromethoxy)-6-methoxy-4-[7-[[1-(oxetan-3-yl)pyrrolidin-3-yl]methoxy]imidazo[1,2-a]pyridin-3-yl]benzamide], for which the values for the IC50 against SIK1, against SIK2 and against SIK3 were 10 to 100 nM, 0.01 to 10 nM and 0.01 to 10 nM, respectively. For the same compound, the EC50 in experiment [1] (4 h) was in the range of 0.1 to 100 nM. Also, the “IL-10 FCmax median” value in experiment [2] was “+++ (>4.5)”.

On to `COc1cc(-c2cnc3cc(OCCCN4CCCCC4)ccn23)cc(OC(F)F)c1C(=O)N1CC(O)(C(F)F)C1` [compound 358, [2-(difluoromethoxy)-6-methoxy-4-[7-[3-(1-piperidyl)propoxy]imidazo[1,2-a]pyridin-3-yl]phenyl]-[3-(difluoromethyl)-3-hydroxy-azetidin-1-yl]methanone], for which the IC50 on SIK1 was 10 to 100 nM; on SIK2, 0.01 to 10 nM; against SIK3, 0.01 to 10 nM. Besides, the EC50 in experiment [1] (4 h) lay in the range of 100 to 1000 nM. In addition, the “IL-10 FCmax median” value in experiment [2] is “+++ (>4.5)”.

As to `COc1cc(-c2cnc3cc(OCC4CCN(C(C)C)C4)ccn23)cc(OC(F)F)c1C(=O)NC1CC1` (centres unmarked) [Cpd 287, N-cyclopropyl-2-(difluoromethoxy)-4-[7-[(1-isopropylpyrrolidin-3-yl)methoxy]imidazo[1,2-a]pyridin-3-yl]-6-methoxy-benzamide], the values for the IC50 against SIK1, at SIK2 and on SIK3 were 10 to 100 nM, 0.01 to 10 nM and 0.01 to 10 nM, respectively. In experiment [1] (4 h), this compound came in with an EC50 of 0.1 to 100 nM. Further, the “IL-10 FCmax median” value in experiment [2] was “++ (>1.5-4.5)”.

Consider `COc1cc(-c2cnc3cc(OC4C[C@H]5CC[C@@H](C4)N5CCC#N)ccn23)cc(OC(F)F)c1C(=O)NC1CC1` (stereo partly drawn) [Cpd 271, 4-[7-[[(1S,5R)-8-(2-cyanoethyl)-8-azabicyclo[3.2.1]octan-3-yl]oxy]imidazo[1,2-a]pyridin-3-yl]-N-cyclopropyl-2-(difluoromethoxy)-6-methoxy-benzamide], for which the IC50 against SIK1 lay in the range of 100 to 500 nM; at SIK2, 10 to 100 nM; on SIK3, 0.01 to 10 nM. Further, the EC50 in experiment [1] (4 h) is 100 to 1000 nM. Moreover, the “IL-10 FCmax median” value in experiment [2] was “++ (>1.5-4.5)”.

`COc1cc(-c2cnc3cc(OCCCN4CCC(F)(F)C(O)C4)ccn23)cc(OC(F)F)c1C(=O)NC1CC1` (centres unmarked) [compound 344, N-cyclopropyl-4-[7-[3-(4,4-difluoro-3-hydroxy-1-piperidyl)propoxy]imidazo [1,2-a]pyridin-3-yl]-2-(difluoromethoxy)-6-methoxy-benzamide]: the results for the IC50 against SIK1, on SIK2 and at SIK3 were 10 to 100 nM, 0.01 to 10 nM and 0.01 to 10 nM, respectively. This compound yielded an EC50 in experiment [1] (4 h) of 0.1 to 100 nM. For the same compound, in experiment [2], the “IL-10 FCmax median” value is “++ (>1.5-4.5)”.
